Reference: paper PMC3685885 (Toxicology and applied pharmacology, 2013)
Where “and” joins values, the source holds several entries; their conditions need not be identical. Identical values can stand only once. Like-named read-outs stand apart in the source and are kept apart here.

How the values were obtained:
[1] = biological target: T1, human CB2Rs (Homo sapiens, UniProt P34972); assay: [35S]GTPγS binding; format: biochemical; details: CHO-hCB2 membranes; for Intrinsic activity at CB2Rs, G-protein activation: agonists at 10 µM compared to CP-55,940; for CB2R Efficacy (EMAX) G-protein Activation: 10 µM, [35S]GTPγS binding, mean ± SEM
[2] = biological target: human mu-opioid receptors (Homo sapiens, UniProt P35372); assay: [35S]GTPγS binding; format: biochemical; details: 10 µM, membranes not expressing hCB2Rs
[3] = biological target: T1, human CB2Rs; assay: Inhibition of forskolin-stimulated adenylyl cyclase; format: cell-based; details: for CB2R Efficacy (EMAX) AC-Inhibition: 10 µM; for FRO for 50% AC-Inhibition: fractional CB2R occupancy at AC-IC50, FRO = [DRUG] / (Ki + [DRUG]); for Intrinsic activity at CB2Rs, AC-inhibition: 10 µM compared to CP-55,940; for Potency to regulate AC-activity relative to the parent compound: IC50 metabolite versus parent
[4] = biological target: T1, human CB2Rs; assay: [3H]CP-55,940 competition receptor binding in CHO-hCB2 membranes
[5] = intact CHO-hCB2 cells, mean ± SEM
[6] = read-out: CB2R Affinity (Ki), [3H]CP-55,940 0.2 nM, CHO-hCB2 membranes, mean ± SEM
[7] = read-out: Potency for AC-Inhibition (IC50), intact CHO-hCB2 cells, 30 µM forskolin, mean ± SEM

T1 sequence (P34972 whole entry): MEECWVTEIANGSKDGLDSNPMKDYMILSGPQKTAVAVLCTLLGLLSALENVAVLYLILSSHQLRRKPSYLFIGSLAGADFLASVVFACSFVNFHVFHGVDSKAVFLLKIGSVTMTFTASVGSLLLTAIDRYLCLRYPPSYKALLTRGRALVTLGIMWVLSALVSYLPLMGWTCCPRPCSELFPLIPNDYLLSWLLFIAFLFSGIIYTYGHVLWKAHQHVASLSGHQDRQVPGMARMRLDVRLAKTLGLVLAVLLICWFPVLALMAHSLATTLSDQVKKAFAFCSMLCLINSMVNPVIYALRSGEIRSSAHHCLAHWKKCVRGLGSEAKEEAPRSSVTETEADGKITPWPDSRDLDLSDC
Chain of human mu-opioid receptors (P35372 whole entry): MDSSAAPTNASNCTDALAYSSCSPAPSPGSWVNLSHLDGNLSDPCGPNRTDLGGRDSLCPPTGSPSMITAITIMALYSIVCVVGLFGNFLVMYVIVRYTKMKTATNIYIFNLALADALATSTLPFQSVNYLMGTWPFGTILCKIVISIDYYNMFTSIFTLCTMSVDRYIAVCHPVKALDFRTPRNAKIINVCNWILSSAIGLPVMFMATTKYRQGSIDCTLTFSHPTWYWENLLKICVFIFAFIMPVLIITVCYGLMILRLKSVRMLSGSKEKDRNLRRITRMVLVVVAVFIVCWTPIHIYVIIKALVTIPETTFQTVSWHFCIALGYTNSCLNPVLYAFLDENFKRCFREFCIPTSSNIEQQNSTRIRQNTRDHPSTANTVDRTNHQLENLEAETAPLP

| Molecule | Intrinsic activity at CB2Rs, G-protein activation [1] | CB2R Efficacy (EMAX) G-protein Activation [1] | CB2R Efficacy (EMAX) AC-Inhibition [3, 5] | Ki [4, 6] | further results |
| --- | --- | --- | --- | --- | --- |
| SR-144528 [reference compound] | acted as inverse agonists |  |  |  |  |
| CCCCn1cc(C(=O)c2cccc3ccccc23)c2ccccc21 [JWH-073, 1-butyl-3-(1-naphthoyl)indole] |  | 40.1 ± 4.2 (3) fmole/mg | 62.6 ± 2.7 (3) % Inhibition |  | Effect on G-protein activity in CHO-hMOR membranes [2]: failed to significantly alter G-protein activity; IC50 [3]: 16.9 ± 1.9 nM; FRO for 50% AC-Inhibition [3]: 62.5% and 62.5 ± 3.0 (5) %; Intrinsic activity at CB2Rs, AC-inhibition ([3]; intact CHO-hCB2 cells): full agonists |
| O=C(O)CCCCn1cc(C(=O)c2cccc3ccccc23)c2ccccc21 [JWH-018-M6] |  |  |  | > 10000 nM | CB2R affinity ([4]; CHO-hCB2 membranes): lack affinity for CB2Rs |
| O=C(c1cccc2ccccc12)c1cn(CCCCCO)c2ccccc12 [JWH-018-M5] |  | 38.4 ± 8.5 (5) fmole/mg | 53.5 ± 4.6 (4) % Inhibition | 47.4 ± 10.1 nM | Potency to regulate AC-activity relative to the parent compound [3]: ~5 fold; Intrinsic activity at CB2Rs, AC-inhibition ([3]; intact CHO-hCB2 cells): partial CB2R agonists; IC50 [3, 7]: 17.7 ± 5.5 nM |
| O=C(c1cccc2ccccc12)c1cn(CCCCO)c2ccccc12 [JWH-073-M5] |  | 31.0 ± 1.0 (3) fmole/mg | 54.2 ± 5.9 (4) % Inhibition | 96 ± 7.1 nM | Potency to regulate AC-activity relative to the parent compound [3]: equipotent; FRO for 50% AC-Inhibition [3]: 12.1% and 12.1 ± 1.6 (3) %; IC50 [3, 7]: 13.3 ± 2 nM |
| CCCCCOc1c(OC)ccc2cc(C(=O)NCc3ccc4c(c3)OCO4)c(=O)[nH]c12 [JTE-907, reference compound] | acted as inverse agonists |  |  |  |  |
| O=C(O)CCCn1cc(C(=O)c2cccc3ccccc23)c2ccccc21 [JWH-073-M6] |  |  |  | > 10000 nM | CB2R affinity ([4]; CHO-hCB2 membranes): lack affinity for CB2Rs |
| CCCCCn1cc(C(=O)c2cccc3ccccc23)c2ccccc21 [JWH-018, 1-pentyl-3-(1-naphthoyl)indole] |  | 60.3 ± 11.4 (7) fmole/mg | 59.3 ± 4.0 (4) % Inhibition |  | Ki [4]: 5.6 ± 2.4 nM; Effect on G-protein activity in CHO-hMOR membranes [2]: failed to significantly alter G-protein activity; IC50 [3]: 3.6 ± 2.2 nM |
| COc1ccc(C(=O)c2c(C)n(CCN3CCOCC3)c3cc(I)ccc23)cc1 [AM-630, reference compound] | acted as inverse agonists |  |  |  |  |
